We go through one compound from patent US5968948A, “Annelated dihydropyridines and the use thereof for preparing pharmaceutical preparations” (Boerhinger Ingelheim GmbH, priority 1993, dated 1999).

For the assay, the system named is RBL-2H3-cells. The assay can be described thus: Antigen-induced (DNP-BSA) activation of sensitised RBL-2H3 cells, fluorometric calcium measurement. It is filed as cell-based. To be noted: Rattus norvegicus, read-out: inhibition of the antigen-induced cell activation. As for the experimental part:
Individual RBL-2H3-cells (a tumour cell line related to the mast cells) adhering to glass slides are used.
The cultivation and attachment of the RBL-2H3-cells are carried out by the method described by HIDE and BEAVEN (1991). In order to sensitise the adhesive RBL-2H3-cells the cells are incubated for 2 hours at ambient temperature with a 1:2000 diluted commercial gammaglobulin E-solution against a dinitrophenol-bovine serum albumin complex (DNP-BSA-antigen). The cells are then washed. By the addition of 0.1 ml of DNP-BSA-solution (10 μg/ml) there is a massive immunological cell activation which is mediated by a cytoplasmic Ca^2+ -overload. The fluorometric calcium measurement in the cytoplasm of individual adhering RBL-2H3-cells is carried out analogously to the method described by KUDO and OGURA (1986) for neuronal cells, which is also explained hereinbefore in this specification.
The comparison used in these investigations is (10 μM) chromoglycate which brings about an approximately 50% inhibition of the antigen-induced cell activation.

Broadly, the inhibition is the drop in the measured response relative to a control, in per cent. For `O=C(O)c1cc(=O)c2c(OCC(O)COc3cccc4oc(C(=O)O)cc(=O)c34)cccc2o1` [chromoglycate], the inhibition at 10 µM was approximately 50%.
